Article PMC5537602, “TRPA1 channel mediates organophosphate-induced delayed neuropathy” (Cell Discovery, 2017)
“Also recorded” adds a separate entry of the source.

Columns and labels:
hens = assay: Transmission electron microscopy of hen spinal cord and sciatic nerve; type: in vivo
Procedure: For hens, the animals were anesthetized with sodium pentobarbital (100 mg kg^−1) and killed 21 days after exposure to TOCP and malathion. They were then perfused with normal saline followed immediately by 4% paraformaldehyde. The lumbar spinal cord at approximately the L2-L3 level and the sciatic nerve of the left leg were removed and fixed by immersion in ice-cold 2.5% glutaraldehyde. Subsequently, the samples were post-fixed in 1% OsO4 for 1 h, dehydrated with the ethanol series, and embedded in epon resin. Sixty-nanometer ultra-thin sections were double stained with lead citrate and uranyl acetate and examined with an electron microscopy.

rTRPA1 = target: T1, rTRPA1 (Rattus norvegicus, UniProt Q6RI86); assay: Whole-cell patch-clamp, HEK293 cells expressing rTRPA1; type: cell-based
T1 construct: expressed in transfected cells; host or cells: HEK293, transient
T1 sequence (Q6RI86 whole entry): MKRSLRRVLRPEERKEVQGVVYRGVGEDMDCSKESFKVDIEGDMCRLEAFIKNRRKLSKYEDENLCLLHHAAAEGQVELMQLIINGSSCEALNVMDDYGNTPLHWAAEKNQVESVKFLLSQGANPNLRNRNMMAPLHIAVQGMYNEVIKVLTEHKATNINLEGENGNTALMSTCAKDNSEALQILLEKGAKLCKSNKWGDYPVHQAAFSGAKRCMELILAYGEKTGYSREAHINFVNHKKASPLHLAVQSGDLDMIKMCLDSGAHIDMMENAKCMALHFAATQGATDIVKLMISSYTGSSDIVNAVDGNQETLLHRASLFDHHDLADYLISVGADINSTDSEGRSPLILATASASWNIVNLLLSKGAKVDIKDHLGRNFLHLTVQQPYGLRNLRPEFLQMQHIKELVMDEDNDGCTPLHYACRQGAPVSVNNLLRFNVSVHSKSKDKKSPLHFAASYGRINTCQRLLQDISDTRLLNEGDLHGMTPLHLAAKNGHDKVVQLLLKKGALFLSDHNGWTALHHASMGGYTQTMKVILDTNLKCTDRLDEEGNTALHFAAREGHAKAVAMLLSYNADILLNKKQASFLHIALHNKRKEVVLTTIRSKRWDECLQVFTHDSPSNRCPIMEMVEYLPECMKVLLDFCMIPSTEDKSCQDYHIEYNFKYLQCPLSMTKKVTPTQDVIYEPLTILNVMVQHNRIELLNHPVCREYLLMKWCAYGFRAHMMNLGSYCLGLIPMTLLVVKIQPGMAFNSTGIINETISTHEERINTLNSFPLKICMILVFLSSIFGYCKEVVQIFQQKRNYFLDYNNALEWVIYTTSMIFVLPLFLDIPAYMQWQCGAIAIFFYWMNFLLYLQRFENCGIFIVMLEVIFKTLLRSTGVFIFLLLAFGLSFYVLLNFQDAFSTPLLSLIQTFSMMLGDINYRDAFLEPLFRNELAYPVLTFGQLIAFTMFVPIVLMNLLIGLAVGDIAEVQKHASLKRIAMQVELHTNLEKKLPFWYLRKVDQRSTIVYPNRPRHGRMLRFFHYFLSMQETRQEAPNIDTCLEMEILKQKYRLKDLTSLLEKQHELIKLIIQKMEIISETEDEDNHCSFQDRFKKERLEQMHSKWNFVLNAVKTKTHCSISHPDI
Procedure: (§1) Human embryonic kidney 293 (HEK293) cells were cultured in DMEM containing 10% (vol/vol) heat-inactivated fetal bovine serum, 100 units ml^−1 penicillin–streptomycin and 2 mM L-glutamine at 37 °C in a humidity-controlled sterile incubator with 5% CO2. All cell culture reagents were purchased from Life Technologies. HEK293 cells were transfected transiently with the corresponding plasmids using lipofectamine 2000 (Life Technologies). Transfection efficiency was monitored by co-transfecting EGFP plasmid which codes for the enhanced green fluorescent protein. Electrophysiological recordings were performed between 24 and 36 h after transfection.
(§2) Whole-cell patch-clamp recordings in DRG neurons (small diameter, […]) and HEK293 cells were operated at room temperature (23–25 °C) using EPC-10 amplifier and Patch Master Software (HEKA). […] Currents were sampled at 10 kHz and low-pass filtered at 2.9 kHz. The internal solution was as follows (in mM): 140 CsCl, 10 HEPES, 5 EGTA, 0.1 CaCl2 and 1 MgCl2, with pH adjusted to 7.2 by CsOH and osmolarity 295–300 mOsm. The calcium-free external solution contained (in mM) 140 NaCl, 5 KCl, 0.5 EGTA, 1 MgCl2, 10 Glucose and 10 HEPES, with pH adjusted to 7.4 by NaOH and osmolarity 300–310 mOsm. The 0.5 mM EGTA was replaced by 2 mM CaCl2 for the recordings in DRG neurons. TRPA1 currents development was monitored with repetitive injections of 300 ms duration voltage ramps from −100 to +100 mV every 2 s and the holding potential was set to 0 mV for 50 ms, existing in both sides of the voltage ramp. To record inward currents in DRG neurons, we conducted voltage clamp at holding membrane potential of −70 mV. Solutions were switched using a gravity-fed continuous focal perfusion system.

hTRPA1 = target: T2, hTRPA1 (Homo sapiens, UniProt O75762); assay: cell-based; type: cell-based
T2 construct: expressed in transfected cells; host or cells: HEK293, transient, EGFP plasmid co-transfected
T2 sequence (O75762 whole entry): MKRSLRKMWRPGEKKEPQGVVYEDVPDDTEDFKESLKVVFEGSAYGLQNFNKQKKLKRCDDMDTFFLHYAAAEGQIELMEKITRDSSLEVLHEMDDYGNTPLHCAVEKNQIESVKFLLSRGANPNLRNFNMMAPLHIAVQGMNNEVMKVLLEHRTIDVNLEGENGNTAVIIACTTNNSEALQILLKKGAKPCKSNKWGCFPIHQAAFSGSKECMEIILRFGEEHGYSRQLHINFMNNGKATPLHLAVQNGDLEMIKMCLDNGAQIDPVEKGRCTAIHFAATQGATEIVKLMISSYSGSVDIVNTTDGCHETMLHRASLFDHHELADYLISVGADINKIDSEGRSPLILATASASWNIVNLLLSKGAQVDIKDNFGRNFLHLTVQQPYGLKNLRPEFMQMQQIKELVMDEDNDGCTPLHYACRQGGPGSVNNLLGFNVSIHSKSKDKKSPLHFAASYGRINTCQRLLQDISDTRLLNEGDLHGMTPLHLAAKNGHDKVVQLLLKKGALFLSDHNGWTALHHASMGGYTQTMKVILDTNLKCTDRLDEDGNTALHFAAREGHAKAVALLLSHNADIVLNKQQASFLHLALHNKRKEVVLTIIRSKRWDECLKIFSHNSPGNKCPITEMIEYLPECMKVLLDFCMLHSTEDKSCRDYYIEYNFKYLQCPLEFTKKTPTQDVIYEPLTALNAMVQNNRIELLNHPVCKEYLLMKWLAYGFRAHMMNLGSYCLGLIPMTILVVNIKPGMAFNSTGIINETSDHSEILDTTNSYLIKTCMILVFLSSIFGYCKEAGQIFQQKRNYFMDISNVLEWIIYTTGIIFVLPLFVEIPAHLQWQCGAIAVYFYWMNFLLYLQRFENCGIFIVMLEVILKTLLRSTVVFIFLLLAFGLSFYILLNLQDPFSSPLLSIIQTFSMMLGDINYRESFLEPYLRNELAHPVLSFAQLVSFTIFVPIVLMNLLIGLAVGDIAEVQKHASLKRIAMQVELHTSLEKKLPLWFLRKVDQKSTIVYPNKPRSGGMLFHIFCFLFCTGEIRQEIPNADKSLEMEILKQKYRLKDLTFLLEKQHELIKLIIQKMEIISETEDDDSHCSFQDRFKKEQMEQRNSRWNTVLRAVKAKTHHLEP
Procedure: as §1, §2

mouse DRG neurons = assay: Whole-cell patch-clamp of small-diameter DRG neurons; type: cell-based
Procedure: DRG neurons were isolated from young C57 BL/6 mice (4–5 weeks). The sections of thoracic and lumbar DRG neurons were rapidly isolated in calcium and magnesium-free PBS with low temperature conditions (ice-bath environment). The isolated tissues were cut into pieces with scissor and incubated for 30 min with 0.1% collagenase and 0.025% trypsin which were diluted by DMEM-F12 at 37 °C. After digestion, neurons were gently dissociated using Pasteur pipettes and then plated onto poly-D-lysine pre-coated glass cover slips. DRG neurons were cultured for 24 h before use.
as §2

[1] = 30 μM, calcium-free external solution

Structure (SMILES) | effect on TOCP- or malathion-induced nerve injuries (TEM) (hens; HC030031 100 mg kg−1) | block of agonist-elicited rTRPA1 currents (rTRPA1; 10 μM HC030031, malathion or TOCP as agonist) | block of agonist-elicited hTRPA1 currents (hTRPA1) | effect on AITC- or malathion-elicited action potentials (mouse DRG neurons; 10 μM HC030031) | inhibition of malathion-induced inward currents in DRG neurons (mouse DRG neurons; 10 μM HC030031) | damage of spinal cord and sciatic nerve (TEM) (hens; 21 days after exposure) | activation of rTRPA1 whole-cell currents (rTRPA1; [1]) | activation of hTRPA1 whole-cell currents (hTRPA1; [1]) | EC50 (hTRPA1; whole-cell patch-clamp) | action potential firing in WT small-diameter neurons (mouse DRG neurons; 100 μM) | currents in neurons from Trpa1−/− mice (mouse DRG neurons; Trpa1−/− neurons, 17/17) | neurons with robust inward currents (mouse DRG neurons; small-diameter neurons from WT mice, 7/18)
CC(C)c1ccc(NC(=O)Cn2cnc3c2c(=O)n(C)c(=O)n3C)cc1 [HC030031] | significantly reduced | blocked | blocked; also recorded: inhibited | suppressed | inhibited |  |  |  |  |  |  | 
CCOC(=O)CC(SP(=S)(OC)OC)C(=O)OCC (stereo not drawn) [malathion, S-[1,2-bis (ethoxycarbonyl)ethyl] O, O-dimethyl phosphorodithioate] |  |  |  |  |  | severely damaged the spinal cord and sciatic nerve | large activation current | large activation current | 14.2 ± 1.84 µM | bursts of action potentials | failed to induce currents | ~ 39%
